Source: article PMC6152416, “Pharmacological and Toxicological Screening of Novel Benzimidazole-Morpholine Derivatives as Dual-Acting Inhibitors” (Molecules : A Journal of Synthetic Chemistry and Natural …, 2017)
Like-named read-outs stand apart in the source and are kept apart here.

Tests used:
Assay type in all cases: biochemical
[1] = biological target: T1, COX-2 (Homo sapiens, UniProt P35354); assay: Fluorimetric COX-2 inhibition screening kit (BioVision)
T1 construct: purchased BioVision (Milpitas, CA, USA) K547-100
T1 sequence (P35354 18-604): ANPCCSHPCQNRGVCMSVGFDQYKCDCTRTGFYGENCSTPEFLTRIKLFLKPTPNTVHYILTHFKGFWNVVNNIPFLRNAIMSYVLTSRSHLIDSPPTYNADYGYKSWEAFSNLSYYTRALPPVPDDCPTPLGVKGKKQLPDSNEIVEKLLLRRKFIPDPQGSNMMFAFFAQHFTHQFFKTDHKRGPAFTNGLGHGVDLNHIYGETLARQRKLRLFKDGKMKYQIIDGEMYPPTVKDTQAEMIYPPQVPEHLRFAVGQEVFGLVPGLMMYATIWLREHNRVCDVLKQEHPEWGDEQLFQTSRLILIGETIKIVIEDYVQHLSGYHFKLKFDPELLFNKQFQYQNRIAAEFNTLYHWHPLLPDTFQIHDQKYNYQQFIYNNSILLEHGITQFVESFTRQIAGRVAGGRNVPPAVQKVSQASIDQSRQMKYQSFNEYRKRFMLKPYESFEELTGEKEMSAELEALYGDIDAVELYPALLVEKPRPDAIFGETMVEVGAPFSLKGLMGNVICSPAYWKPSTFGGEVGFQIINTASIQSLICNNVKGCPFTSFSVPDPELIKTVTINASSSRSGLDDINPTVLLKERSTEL
Protocol: (§1) Inhibitory potency of the compounds on COX-1 and COX-2 enzymes was determined by using fluorimetric COX-1 and COX-2 inhibition screening kits from BioVision (Milpitas, CA, USA). The experimental protocol as described in the guides provided by the supplier was followed. All of the pipetting were performed using a robotized system to increase speed, accuracy and precision. Fluorescence intensities of the samples were kinetically measured at 25 °C for 5–10 min by monitoring emissions at 587 nm after excitation at 535 nm. Two appropriate points (T1 and T2) in the linear range of the plot were chosen and the corresponding fluorescence values (RFU1 and RFU2) were obtained. The slope for all samples including Enzyme Control (EC) was calculated by dividing the net ΔRFU (RFU2 − RFU1) values by the time ΔT (T2 − T1). Percentage of relative inhibition was calculated by using the following equation:% Relative inhibition = (Slope of EC − Slope of S/Slope of EC) × 100 where S is the term representing the tested compound [51, 52]. […] The IC50 values were calculated using the plots of the enzyme activity against concentrations by applying regression analyses.

[2] = biological target: T2, COX-1 (Ovis aries, UniProt P05979); assay: Fluorimetric COX-1 inhibition screening kit (BioVision)
T2 construct: purchased BioVision (Milpitas, CA, USA) K548-100
T2 sequence (P05979 25-600): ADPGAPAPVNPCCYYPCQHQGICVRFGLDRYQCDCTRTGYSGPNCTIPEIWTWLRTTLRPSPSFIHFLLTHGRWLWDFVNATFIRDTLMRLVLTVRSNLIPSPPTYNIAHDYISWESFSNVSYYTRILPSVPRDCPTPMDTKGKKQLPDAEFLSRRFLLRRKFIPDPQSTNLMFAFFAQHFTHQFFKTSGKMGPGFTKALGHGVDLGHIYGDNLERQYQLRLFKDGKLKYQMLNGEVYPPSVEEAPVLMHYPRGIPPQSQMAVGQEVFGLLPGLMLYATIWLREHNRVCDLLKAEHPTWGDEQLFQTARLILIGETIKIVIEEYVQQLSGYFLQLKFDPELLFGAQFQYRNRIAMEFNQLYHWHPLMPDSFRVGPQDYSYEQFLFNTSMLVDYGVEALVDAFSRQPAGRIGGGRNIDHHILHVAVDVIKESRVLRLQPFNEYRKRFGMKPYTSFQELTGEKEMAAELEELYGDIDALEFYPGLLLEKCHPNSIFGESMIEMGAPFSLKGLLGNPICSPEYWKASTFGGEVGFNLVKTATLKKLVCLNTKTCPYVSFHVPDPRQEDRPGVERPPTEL
Protocol: as §1

[3] = biological target: AChE (Homo sapiens, UniProt P22303)
Sequence of AChE (P22303 32-614): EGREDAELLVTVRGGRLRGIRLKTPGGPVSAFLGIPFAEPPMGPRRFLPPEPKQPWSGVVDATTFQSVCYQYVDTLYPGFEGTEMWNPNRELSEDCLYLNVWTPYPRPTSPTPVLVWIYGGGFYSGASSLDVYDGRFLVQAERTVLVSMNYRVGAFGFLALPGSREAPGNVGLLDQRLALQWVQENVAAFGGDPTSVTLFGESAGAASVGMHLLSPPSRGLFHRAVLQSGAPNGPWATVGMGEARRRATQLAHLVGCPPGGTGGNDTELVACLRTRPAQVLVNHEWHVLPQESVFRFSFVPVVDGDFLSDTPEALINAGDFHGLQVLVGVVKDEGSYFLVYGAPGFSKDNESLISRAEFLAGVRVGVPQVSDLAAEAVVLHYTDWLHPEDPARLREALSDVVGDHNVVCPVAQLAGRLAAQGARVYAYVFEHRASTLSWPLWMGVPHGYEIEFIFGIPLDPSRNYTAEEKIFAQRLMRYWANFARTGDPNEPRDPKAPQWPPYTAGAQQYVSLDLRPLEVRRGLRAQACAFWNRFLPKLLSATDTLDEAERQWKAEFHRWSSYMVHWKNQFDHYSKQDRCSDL
Protocol: Inhibition potency of the test compounds against AChE was determined using Ellman’s method. Enzyme solutions were prepared in gelatin solution (1%, w/v), at the concentration of 2.5 units/mL. […] AChE solution (20 µL/well) and test solution (20 µL/well) were added to phosphate buffer solution (140 µL/well, pH 8.0 ± 0.1), and incubated at 25 °C for 5 min. […] The production of the yellow anion was recorded by multimode microplate reader for 10 min at 412 nm. As a control, an identical solution of the enzyme without the inhibitor was processed. The control and the inhibitor readings were corrected with blank-readings. All processes were assayed in four independent determinations.

[4] = biological target: T3, human recombinant MAO-A (Homo sapiens, UniProt P21397); assay: MAO inhibition assay (kynuramine, fluorimetric)
T3 sequence (P21397 1-527): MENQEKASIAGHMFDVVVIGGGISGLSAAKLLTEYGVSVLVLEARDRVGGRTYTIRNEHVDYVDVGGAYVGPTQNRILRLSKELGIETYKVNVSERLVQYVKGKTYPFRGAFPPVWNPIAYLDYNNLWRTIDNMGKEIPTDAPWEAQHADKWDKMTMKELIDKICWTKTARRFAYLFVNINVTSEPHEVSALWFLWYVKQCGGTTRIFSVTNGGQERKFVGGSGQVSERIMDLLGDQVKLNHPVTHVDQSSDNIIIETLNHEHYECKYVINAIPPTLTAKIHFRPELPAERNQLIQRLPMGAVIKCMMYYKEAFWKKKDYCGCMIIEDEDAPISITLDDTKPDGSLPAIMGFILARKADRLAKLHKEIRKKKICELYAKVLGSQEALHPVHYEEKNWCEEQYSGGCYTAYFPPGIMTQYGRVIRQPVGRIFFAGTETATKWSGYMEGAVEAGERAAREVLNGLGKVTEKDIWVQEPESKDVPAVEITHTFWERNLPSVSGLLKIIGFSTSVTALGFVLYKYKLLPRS
Protocol: (§2) Enzyme activity assays were performed according to the procedure reported by Matsumoto et al. with slight modifications. In order to prevent the destructive effect of light on MAO enzymes, the assays were performed in 96-well black plates. Phosphate buffer solution (0.1 M, pH = 7.4) was used for preparation of stock solutions (5 mg/mL) of both human recombinant MAO-A and MAO-B enzymes. […] The addition of the test compound solution was followed by addition of either MAO-A or MAO-B enzyme (50 μL/well) solutions. After 10 min of incubation at 37 °C, kynuramine (50 μL/well) was added and enzyme-substrate reaction was initiated. The plate was incubated for 20 min at 37 °C and then reaction was terminated by addition of 2 N NaOH (75 μL/well). The fluorimetric reads from the top was performed at 310 nm excitation and 380 nm emission wavelengths.

[5] = biological target: T4, human recombinant MAO-B (Homo sapiens, UniProt P27338); assay: MAO inhibition assay (kynuramine, fluorimetric)
T4 sequence (P27338 1-520): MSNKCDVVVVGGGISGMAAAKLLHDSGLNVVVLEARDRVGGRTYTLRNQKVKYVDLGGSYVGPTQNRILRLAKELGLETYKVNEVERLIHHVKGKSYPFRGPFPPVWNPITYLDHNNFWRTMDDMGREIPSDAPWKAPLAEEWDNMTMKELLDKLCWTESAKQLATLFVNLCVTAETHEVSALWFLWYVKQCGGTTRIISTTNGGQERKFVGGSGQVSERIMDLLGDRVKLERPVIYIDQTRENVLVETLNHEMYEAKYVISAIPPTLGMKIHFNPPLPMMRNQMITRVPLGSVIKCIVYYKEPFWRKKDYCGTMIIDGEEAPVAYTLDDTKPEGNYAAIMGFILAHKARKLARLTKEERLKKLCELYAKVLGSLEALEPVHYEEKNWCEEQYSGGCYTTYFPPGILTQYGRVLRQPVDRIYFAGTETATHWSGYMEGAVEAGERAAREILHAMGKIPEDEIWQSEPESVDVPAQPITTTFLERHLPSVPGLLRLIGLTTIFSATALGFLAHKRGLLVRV
Protocol: as §2

SMILES	COX-2 Inhibition (%) ([1]; 10^-3 M)	COX-2 Inhibition (%) ([1]; 10^-4 M)	COX-1 Inhibition (%) ([2]; 10^-3 M)	COX-1 Inhibition (%) ([2]; 10^-4 M)	AChE Inhibition (%) ([3]; 10^-3 M)	AChE Inhibition (%) ([3]; 10^-4 M)	MAO-A Inhibition (%) ([4]; 10^-3 M)	MAO-A Inhibition (%) ([4]; 10^-4 M)	MAO-B Inhibition (%) ([5]; 10^-3 M)	MAO-B Inhibition (%) ([5]; 10^-4 M)	other results
CN(C)c1ccc(-c2nc3ccccc3n2CCN2CCOCC2)cc1 [Compound 2i, 2-(4-Dimethylaminophenyl)-1-[2-(morpholin-4-yl)ethyl]-1H-benzimidazole]	18.47%	25.76%	30.08%	22.62%	7.54%	7.54%	26.91%	19.20%	22.17%	14.43%	
Fc1ccc(-c2nc3ccccc3n2CCN2CCOCC2)cc1 [Compound 2d, 2-(4-Fluorophenyl)-1-[2-(morpholin-4-yl)ethyl]-1H-benzimidazole]	21.08%	28.46%	31.87%	29.36%	16.20%	16.20%	39.79%	33.11%	45.29%	38.96%	
c1ccc(COc2ccc(-c3nc4ccccc4n3CCN3CCOCC3)cc2)cc1 [Compound 2f, 2-(4-Benzyloxyphenyl)-1-[2-(morpholin-4-yl)ethyl]-1H-benzimidazole]	61.23%	60.20%	75.37%	79.08%	15.75%	15.75%	32.14%	20.65%	39.32%	31.14%	IC50 [1]: 44.9 µM; COX-2 inhibition at the initial concentrations ([1]; 10^−3 M and 10^−4 M): more than 50%; inhibition at 10 µM ([1]; 10^−5 M): 47 ± 1.13%; inhibition at 1 µM ([1]; 10^−6 M, read-out: COX 2 Inhibition %): 40.2 ± 1.24%; inhibition at 0.1 µM ([1]; 10^−7 M): 35.6 ± 0.91%; inhibition at 0.01 µM ([1]; 10^−8 M): 31.5 ± 0.84%; inhibition at 0.001 µM ([1]; 10^−9 M): 28.7 ± 0.63%; IC50 [2]: 43.2 µM; COX-1 inhibition at the initial concentrations ([2]; 10^−3 M and 10^−4 M): more than 50%; inhibition at 10 µM ([2]; 10^−5 M): 45.4 ± 0.99%; inhibition at 1 µM ([2]; 10^−6 M): 42.1 ± 0.87%; inhibition at 0.1 µM ([2]; 10^−7 M): 34.2 ± 0.76%; inhibition at 0.01 µM ([2]; 10^−8 M): 32.7 ± 0.78%; inhibition at 0.001 µM ([2]; 10^−9 M): 29.9 ± 0.68%
